What all share (type): biochemical
One assay deals with T1, Jak3 (Homo sapiens, UniProt P52333).
T1 construct: The kinase domain of humanJAK3 was amplified from U937mRNA; His tag (from pFastBac HTb vector) (N); made in house; host or cells: baculovirus; Sf9 insect cells for virus, High Five cells for large-scale production
As to the kind of experiment: JAK3 kinase domain assay (ELISA or Alphascreen). The settings on record: capacity to inhibit 50% of activity at 50 μM; read-out: Jak3 inhibitory activity. On the procedure:
(§1) For screening purposes, compounds were diluted in 96 well plates at a concentration of 20 μM. Plates were warmed at 37° C. for 30 minutes before assay.
• JAK2 PCR products were cloned into the pFastBac HTc expression vector (Gibco) via the Sal I and Not I sites. The JAK2 plasmid was then transformed into competent DH10Bac cells (Gibco), and the recombinant baculovirus produced prepared for transfection into Sf9 insect cells. JAK3 • The kinase domain of humanJAK3 was amplified from U937mRNA using the polymerase chain reaction with the following primers:
• JAK3 PCR products were cloned into the pFastBac HTb expression vector (Gibco) via the Xho I and Kpn I sites. The JAK3 plasmid was then transformed into competent DH10Bac cells (Gibco), and the recombinant baculovirus produced prepared for transfection into Sf9 insect cells. TYK2 • The kinase domain of humanTYK2 was amplified from A549 mRNA using the polymerase chain reaction with the following primers: […]
(§2) Baculovirus preparations from each of the JAK family members were infected into five litres of High Five cells (Invitrogen) grown in High Five serum free medium (Invitrogen) to a cell density of approximately 1-2×10^6 cells/ml. Cells are infected with virus at a MOI of 0.8-3.0. Cells were harvested and lysed. JAK kinase domains were purified by affinity chromatography on a Probond (Invitrogen) nickel chelate affinity column.
(§3) Kinase assays were performed either in a 96 well capture-based ELISA assay or in 384 well Optiplates (Packard) using an Alphascreen Protein Tyrosine Kinase kit. In either casse using approximately 1.5 μg of affinity purified PTK domain in the presence of 50 mM HEPES, pH 7.5, 10 mM MgCl2, 150 mM NaCl and 10 μM-1 mM ATP. The biotinylated substrate biotin-EGPWLEEEEEAYGWMDF-NH2 (SEQ ID NO:9) (final concentration 5 μM) was used as substrate. In the ELISA assay tyrosine phosphorylation was quantitated following transfer to an avidin coated ELISA plate using peroxidase-linked anti-phospho-tyrosine antibody PY20. In the Alphascreen assay, Alphascreen phosphotyrosine acceptor beads followed by streptavidin donor beads were added under subdued light. The ELISA plates were read on a BMG Fluorostar, the Alphascreen plates were read on a Packard Fusion Alpha. Inhibitors were added to the assays fifteen minutes prior to the addition of ATP. Inhibitors were added in aqueous DMSO, with DMSO concentrations never exceeding 1%.

For a further assay, the target named is hck (Homo sapiens, UniProt P08631). Kind of assay: hck kinase assay (ELISA or Alphascreen). As to conditions: capacity to inhibit 50% of activity at 50 μM; read-out: hck inhibitory activity. On the procedure:
as §1, §3

The target in another assay is kdr (Homo sapiens, UniProt P35968). Kind of assay: kdr kinase assay (ELISA or Alphascreen). The settings on record: capacity to inhibit 50% of activity at 50 μM; read-out: kdr inhibitory activity. On the procedure:
as §1, §3

The target in a further assay is T2, Jak2 (Homo sapiens, UniProt O60674).
T2 construct: The kinase domain of humanJAK2 was amplified from U937mRNA; His tag (from pFastBac HTc vector) (N); made in house; host or cells: baculovirus; Sf9 insect cells for virus, High Five cells for large-scale production
T2 sequence (O60674 849-1124 limits assumed): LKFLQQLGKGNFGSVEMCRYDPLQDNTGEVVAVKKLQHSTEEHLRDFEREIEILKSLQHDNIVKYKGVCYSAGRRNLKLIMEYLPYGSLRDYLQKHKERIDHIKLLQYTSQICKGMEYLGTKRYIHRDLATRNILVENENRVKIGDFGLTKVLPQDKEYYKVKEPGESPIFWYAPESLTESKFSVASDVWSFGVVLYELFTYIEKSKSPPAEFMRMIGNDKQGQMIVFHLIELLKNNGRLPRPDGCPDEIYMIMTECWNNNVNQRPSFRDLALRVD
Kind of assay: JAK2 kinase domain assay (ELISA or Alphascreen). As to conditions: capacity to inhibit 50% of activity at 50 μM; read-out: Jak2 inhibitory activity. On the procedure:
as §1
• JAK1 PCR products were cloned into the pFastBac HTb expression vector (Gibco) via the Xho I and Kpn I sites. The JAK1 plasmid was then transformed into competent DH10Bac cells (Gibco), and the recombinant baculovirus produced prepared for transfection into Sf9 insect cells. JAK2 • The kinase domain of humanJAK2 was amplified from U937mRNA using the polymerase chain reaction with the following primers:
• JAK2 PCR products were cloned into the pFastBac HTc expression vector (Gibco) via the Sal I and Not I sites. The JAK2 plasmid was then transformed into competent DH10Bac cells (Gibco), and the recombinant baculovirus produced prepared for transfection into Sf9 insect cells. JAK3 • The kinase domain of humanJAK3 was amplified from U937mRNA using the polymerase chain reaction with the following primers: […]
as §2, §3

For another assay, the target named is T3, abl (Homo sapiens, UniProt P00519).
T3 sequence (P00519 242-493 limits assumed): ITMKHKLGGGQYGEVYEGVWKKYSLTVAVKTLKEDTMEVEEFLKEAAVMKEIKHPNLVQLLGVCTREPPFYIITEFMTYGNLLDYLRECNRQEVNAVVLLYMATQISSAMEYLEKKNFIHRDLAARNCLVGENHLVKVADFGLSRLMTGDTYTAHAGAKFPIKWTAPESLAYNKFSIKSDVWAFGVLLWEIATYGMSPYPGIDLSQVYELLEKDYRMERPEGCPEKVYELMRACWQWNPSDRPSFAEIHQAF
As to the kind of experiment: abl kinase assay (ELISA or Alphascreen). As to conditions: capacity to inhibit 50% of activity at 50 μM; read-out: abl inhibitory activity. As for the experimental part: as §1, §3

Each structure is given as a SMILES string.

Chain of kdr (P35968 834-1162 limits assumed, species assumed): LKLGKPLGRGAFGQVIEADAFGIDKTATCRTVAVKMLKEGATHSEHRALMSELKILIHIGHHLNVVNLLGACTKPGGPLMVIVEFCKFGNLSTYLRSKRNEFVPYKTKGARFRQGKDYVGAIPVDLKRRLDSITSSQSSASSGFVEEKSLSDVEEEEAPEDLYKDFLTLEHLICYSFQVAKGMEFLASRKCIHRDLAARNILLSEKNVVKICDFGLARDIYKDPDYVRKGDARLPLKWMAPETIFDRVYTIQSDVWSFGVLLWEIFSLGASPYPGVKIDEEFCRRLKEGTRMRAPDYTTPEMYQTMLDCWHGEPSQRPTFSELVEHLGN
Chain of hck (P08631 262-515 limits assumed, species assumed): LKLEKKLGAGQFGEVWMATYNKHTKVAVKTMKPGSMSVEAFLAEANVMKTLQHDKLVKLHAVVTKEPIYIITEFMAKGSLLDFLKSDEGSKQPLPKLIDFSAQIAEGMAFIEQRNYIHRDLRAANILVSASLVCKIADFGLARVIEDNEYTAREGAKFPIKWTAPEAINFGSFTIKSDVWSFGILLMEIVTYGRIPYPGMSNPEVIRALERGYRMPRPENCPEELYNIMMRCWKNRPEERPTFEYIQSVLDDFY
T1 sequence (P52333 822-1111 limits assumed): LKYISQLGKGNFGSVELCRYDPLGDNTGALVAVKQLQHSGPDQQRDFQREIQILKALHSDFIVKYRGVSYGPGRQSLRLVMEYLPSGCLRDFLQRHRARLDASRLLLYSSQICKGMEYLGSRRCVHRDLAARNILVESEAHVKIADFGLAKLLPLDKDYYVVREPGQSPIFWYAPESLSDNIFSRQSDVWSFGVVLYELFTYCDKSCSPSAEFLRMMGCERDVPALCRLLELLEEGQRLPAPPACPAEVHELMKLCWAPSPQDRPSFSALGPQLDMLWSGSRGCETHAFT

Take `C[C@H](Nc1cncc(-n2cnc3ccc(C(N)=O)cc32)n1)c1ccccc1`: the inhibition at 50 µM on Jak3 is less than 50%; at hck, greater than 50%; on kdr it was greater than 50%; at Jak2, greater than 50%; at abl, greater than 50%.

As for `C[C@H](Nc1cncc(-n2cnc3cc(C(=O)NCCCN4CCOCC4)ccc32)n1)c1ccccc1`, the inhibition at 50 µM at Jak3, at hck, on kdr, at Jak2 and at abl was greater than 50% throughout.

In the case of `Cc1cn(-c2cncc(NCc3ccc(F)cc3)n2)cn1`, the inhibition at 50 µM was less than 50% on Jak3; less than 50% on hck; less than 50% on kdr; greater than 50% at Jak2; less than 50% on abl.

Regarding `C[C@H](Nc1cncc(-n2cnc3cc(NS(C)(=O)=O)ccc32)n1)c1ccccc1`, the inhibition at 50 µM at Jak3 was less than 50%; on hck, greater than 50%; on kdr, greater than 50%; on Jak2 it was greater than 50%; at abl it was greater than 50%.

Turning to `C[C@H](Nc1cncc(-n2cnc3cc(C(=O)NCCCn4ccnc4)ccc32)n1)c1ccccc1`, the inhibition at 50 µM at Jak3 is less than 50%; on hck, greater than 50%; at kdr, greater than 50%; at Jak2, greater than 50%; at abl, greater than 50%.

Consider `C[C@@H](Nc1cncc(-n2cnc3ncccc32)n1)c1ccccc1`, for which the inhibition at 50 µM on Jak3, at hck, on kdr, on Jak2 and at abl was less than 50% in each case.

As to `c1ccc2c(c1)ncn2-c1cncc(Nc2ccc(N3CCOCC3)cc2)n1`, the inhibition at 50 µM on Jak3 was less than 50%; on hck, greater than 50%; at kdr, greater than 50%; at Jak2, less than 50%; at abl it was less than 50%.

As for `C[C@H](Nc1cncc(-n2cnc3ccc(NC(=O)c4cnccn4)cc32)n1)c1ccccc1`, the inhibition at 50 µM at Jak3 was less than 50%; at hck, greater than 50%; on kdr, greater than 50%; on Jak2, greater than 50%; on abl, less than 50%.

Regarding `C[C@@H](Nc1cncc(-n2cnc(-c3ccccc3)c2)n1)c1ccccc1`, the inhibition at 50 µM was less than 50% on Jak3; greater than 50% on hck; greater than 50% at kdr; less than 50% at Jak2; greater than 50% on abl.

Regarding `C[C@H](Nc1cncc(-n2cnc3ccc(C(=O)NCCCN4CCOCC4)cc32)n1)c1ccccc1`, the inhibition at 50 µM is less than 50% at Jak3; greater than 50% at hck; greater than 50% at kdr; greater than 50% at Jak2; greater than 50% at abl.

As to `C[C@H](Nc1cncc(-n2cnc3ccc(C4=NCCO4)cc32)n1)c1ccccc1`, the inhibition at 50 µM was less than 50% at Jak3; greater than 50% on hck; greater than 50% on kdr; greater than 50% on Jak2; greater than 50% at abl.

For `C[C@H](Nc1cncc(-n2cnc3cc(C(=O)NCCN(C)C)ccc32)n1)c1ccccc1`, the inhibition at 50 µM on Jak3 was less than 50%; at hck, greater than 50%; on kdr, greater than 50%; at Jak2, greater than 50%; on abl, greater than 50%.

As for `C[C@H](Nc1cncc(-n2cnc3cc(N)ccc32)n1)c1ccccc1`, the inhibition at 50 µM on Jak3 is less than 50%; on hck, greater than 50%; at kdr, greater than 50%; at Jak2, greater than 50%; on abl, greater than 50%.

Consider `C[C@H](Nc1cncc(-n2cnc3cc(CO)ccc32)n1)c1ccccc1`, for which the inhibition at 50 µM at Jak3 was less than 50%; at hck it was greater than 50%; at kdr, greater than 50%; at Jak2 it was greater than 50%; on abl it was less than 50%.

For the compound `C[C@H](Nc1cncc(-n2cnc3ccc(C(=O)N4CCOCC4)cc32)n1)c1ccccc1`, the inhibition at 50 µM is less than 50% on Jak3; greater than 50% at hck; greater than 50% at kdr; less than 50% at Jak2; greater than 50% at abl.

For `CC(Nc1cncc(-n2cnc3ccc(CN4CCN(C)CC4)cc32)n1)c1ccc(F)cc1` (centres unmarked), the inhibition at 50 µM at Jak3 was less than 50%; on hck, greater than 50%; on kdr, greater than 50%; at Jak2, less than 50%; at abl, less than 50%.

`C[C@H](Nc1cncc(-n2cnc3ccc(N)cc32)n1)c1ccccc1`: the inhibition at 50 µM at Jak3 is less than 50%; on hck, greater than 50%; on kdr it was greater than 50%; at Jak2 it was greater than 50%; on abl it was greater than 50%.

With `C[C@H](Nc1cncc(-n2cnc3cc(NC(=O)c4ccccc4)ccc32)n1)c1ccccc1`, the inhibition at 50 µM at Jak3 was less than 50%; on hck, greater than 50%; on kdr, greater than 50%; at Jak2, less than 50%; on abl, greater than 50%.

Turning to `C[C@H](Nc1cncc(-n2cnc3cc(C4=NCCO4)ccc32)n1)c1ccccc1`, the inhibition at 50 µM was less than 50% at Jak3; greater than 50% on hck; greater than 50% on kdr; less than 50% on Jak2; greater than 50% at abl.

In the case of `C[C@@H](Nc1cncc(-n2ccnc2)n1)c1ccccc1`, the inhibition at 50 µM on Jak3 was less than 50%; at hck, greater than 50%; on kdr, less than 50%; at Jak2, less than 50%; on abl, greater than 50%.

Take `C[C@H](Nc1cncc(-n2cnc3cc(C(N)=O)ccc32)n1)c1ccccc1`: the inhibition at 50 µM at Jak3 is less than 50%; at hck, greater than 50%; on kdr, greater than 50%; on Jak2, greater than 50%; on abl, greater than 50%.

Consider `COc1ccc([C@H](C)Nc2cncc(-n3cnc4ccccc43)n2)cc1`, for which the inhibition at 50 µM was less than 50% at Jak3, greater than 50% on kdr, less than 50% at Jak2 and greater than 50% on abl.

As for `C[C@H](Nc1cncc(-n2cnc3ccccc32)n1)c1ccc(Br)cc1`, the inhibition at 50 µM is less than 50% on Jak3, greater than 50% on kdr, less than 50% on Jak2 and greater than 50% at abl.

For the origin of these results see US7511047B2, “Kinase inhibitors” (Cytopia Research Pty Ltd, priority 2002, dated 2009).
